Laboratory results published in patent US12606548B2, “Fungicidal oxadiazoles” (FMC CORPORATION, priority 2019, dated 2026).
Marks after values point to notes of the source that are not given here.

Columns and labels:
Format in all cases: in vivo
[1] = test system: Puccinia recondita f. sp. tritici; assay: Test C: test suspension sprayed on wheat seedlings, inoculated next day with Puccinia recondita f. sp. tritici (wheat leaf rust), visual disease rating; details: for Test C rating (% disease control): relative to the controls
From the text: General protocol for preparing test suspensions for Tests A-C: the test compounds were first dissolved in acetone in an amount equal to 3% of the final volume and then suspended at the desired concentration (in ppm) in acetone and purified water (50/50 mix by volume) containing 250 ppm of the surfactant PEG400 (polyhydric alcohol esters). The resulting test suspensions were then used in Tests A-C. The test suspension was sprayed to the point of run-off on wheat seedlings. The following day the seedlings were inoculated with a spore suspension of Puccinia recondita f. sp. tritici; (the causal agent of wheat leaf rust) and incubated in a saturated atmosphere at 20° C., for 24 h, and then moved to a growth chamber at 20° C., for 6 days, after which time visual disease ratings were made. […] A dash (-) indicates the compound was not tested. The test suspensions were sprayed at the concentration listed in the column “Rate in ppm”, unless otherwise indicated.

Phakopsora pachyrhizi = assay: Test A: test suspension sprayed on soybean seedlings, inoculated next day with Phakopsora pachyrhizi (Asian soybean rust), visual disease rating; details: for Test A rating (% disease control): relative to the controls
From the text: General protocol for preparing test suspensions for Tests A-C: the test compounds were first dissolved in acetone in an amount equal to 3% of the final volume and then suspended at the desired concentration (in ppm) in acetone and purified water (50/50 mix by volume) containing 250 ppm of the surfactant PEG400 (polyhydric alcohol esters). The resulting test suspensions were then used in Tests A-C. The test suspension was sprayed to the point of run-off on soybean seedlings. The following day the seedlings were inoculated with a spore suspension of Phakopsora pachyrhizi (the causal agent of Asian soybean rust) and incubated in a saturated atmosphere at 22° C., for 24 h and then moved to a growth chamber at 22° C., for 8 days, after which time visual disease ratings were made. […] A dash (-) indicates the compound was not tested. The test suspensions were sprayed at the concentration listed in the column “Rate in ppm”, unless otherwise indicated.

Zymoseptoria tritici = assay: Test B: test suspension sprayed on wheat seedlings, inoculated next day with Zymoseptoria tritici (wheat leaf blotch), visual disease rating; details: for Test B rating (% disease control): relative to the controls
From the text: General protocol for preparing test suspensions for Tests A-C: the test compounds were first dissolved in acetone in an amount equal to 3% of the final volume and then suspended at the desired concentration (in ppm) in acetone and purified water (50/50 mix by volume) containing 250 ppm of the surfactant PEG400 (polyhydric alcohol esters). The resulting test suspensions were then used in Tests A-C.
The test suspension was sprayed to the point of run-off on wheat seedlings. The following day the seedlings were inoculated with a spore suspension of Zymoseptoria tritici (the causal agent of wheat leaf blotch) and incubated in a saturated atmosphere at 24° C., for 48 h, and then moved to a growth chamber at 20° C., for 17 days, after which time visual disease ratings were made.
Results for Tests A-C are given in Table A. In the Table, a rating of 100 indicates 100% disease control and a rating of 0 indicates no disease control (relative to the controls). A dash (-) indicates the compound was not tested. The test suspensions were sprayed at the concentration listed in the column “Rate in ppm”, unless otherwise indicated. An asterisk “*” next to the rating indicates a 250 ppm test suspension was used, a double asterisk “**” next to the rating indicates a 100 ppm test suspension was used, and a triple asterisk “***” next to the rating indicates a 50 ppm test suspension was used.

[2] = 100 ppm test suspension (double asterisk **)

CCOC(=O)c1cnn(C(C)c2ccc(-c3noc(C(F)(F)F)n3)s2)c1 (racemic) [Compound 192]
Test C disease control rating ([1]; 10 ppm test suspension): 100% | Test A disease control rating (Phakopsora pachyrhizi; 10 ppm test suspension): 100% | Test B disease control rating (Zymoseptoria tritici; 250 ppm test suspension): 99* %

Cc1ccccc1C(O)c1ccc(-c2noc(C(F)(F)F)n2)cc1 (racemic) [Compound 497]
Test C rating (% disease control) ([1]; Rate 10 ppm test suspension): 0% | Test A rating (% disease control) (Phakopsora pachyrhizi; Rate 10 ppm test suspension): 100% | Test B rating (% disease control) (Zymoseptoria tritici; 250 ppm test suspension): 5* %

CN(C)C(=O)C1=NOC(C)(Cn2cc(-c3noc(C(F)(F)F)n3)cn2)C1 (racemic) [compound 306]
Test C disease control rating ([1]; 50 ppm test suspension): 0% | Test A disease control rating (Phakopsora pachyrhizi; 50 ppm test suspension): 0% | Test B disease control rating (Zymoseptoria tritici; 250 ppm test suspension): 10* %

OC(c1ccc(-c2noc(C(F)(F)F)n2)cc1)c1cccc(F)c1 (racemic) [compound 498]
Test C rating (% disease control) ([1]; Rate 10 ppm test suspension): 0% | Test A rating (% disease control) (Phakopsora pachyrhizi; Rate 10 ppm test suspension): 100% | Test B rating (% disease control) (Zymoseptoria tritici; 250 ppm test suspension): 43* %

OC(c1ccc(-c2noc(C(F)(F)F)n2)cc1)c1cccc(Cl)c1 (racemic) [compound 499]
Test C rating (% disease control) ([1]; Rate 250 ppm test suspension): 100% | Test A rating (% disease control) (Phakopsora pachyrhizi; Rate 250 ppm test suspension): 100% | Test B rating (% disease control) (Zymoseptoria tritici; 250 ppm test suspension): 48* %

OC(c1ccc(F)cc1)c1ccc(-c2noc(C(F)(F)F)n2)cc1 (racemic) [compound 500]
Test C rating (% disease control) ([1]; Rate 250 ppm test suspension): 100% | Test A rating (% disease control) (Phakopsora pachyrhizi; Rate 250 ppm test suspension): 100% | Test B rating (% disease control) (Zymoseptoria tritici; 250 ppm test suspension): 5* %

COC(=O)c1coc(COc2ccc(-c3noc(C(F)(F)F)n3)cc2)n1 [Compound 403, methyl 2-[[4-[5-(trifluoromethyl)-1,2,4-oxadiazol-3-yl]-phenoxy]methyl]oxazole-4-carboxylate]
Test C rating (% disease control) ([1]; Rate 10 ppm test suspension): 0% | Test A rating (% disease control) (Phakopsora pachyrhizi; Rate 10 ppm test suspension): 60% | Test B rating (% disease control) (Zymoseptoria tritici; 250 ppm test suspension): 47* %

CCOC(=O)c1cccc(Cc2ccc(-c3noc(C(F)(F)F)n3)cc2)c1 [Compound 454]
Test C rating (% disease control) ([1]; Rate 10 ppm test suspension): 0% | Test A rating (% disease control) (Phakopsora pachyrhizi; Rate 10 ppm test suspension): 100% | Test B rating (% disease control) (Zymoseptoria tritici; 250 ppm test suspension): 47* %

COC(=O)c1csc(Cc2ccc(-c3noc(C(F)(F)F)n3)cc2)c1 [Compound 455]
Test C rating (% disease control) ([1]; Rate 10 ppm test suspension): 0% | Test A rating (% disease control) (Phakopsora pachyrhizi; Rate 10 ppm test suspension): 100% | Test B rating (% disease control) (Zymoseptoria tritici; 250 ppm test suspension): 66* %

COC(=O)c1coc(Cc2ccc(-c3noc(C(F)(F)F)n3)cc2)n1 [Compound 490]
Test C rating (% disease control) ([1]; Rate 10 ppm test suspension): 74% | Test A rating (% disease control) (Phakopsora pachyrhizi; Rate 10 ppm test suspension): 100% | Test B rating (% disease control) (Zymoseptoria tritici; 250 ppm test suspension): 94* %

ON=Cc1cnn(Cc2ccc(-c3noc(C(F)(F)F)n3)cc2)c1 [compound 20]
Test C disease control rating ([1]; 250 ppm test suspension): 100% | Test A disease control rating (Phakopsora pachyrhizi; 250 ppm test suspension): 100% | Test B disease control rating (Zymoseptoria tritici; 250 ppm test suspension): 99%

COC(=O)c1cnn(Cc2ccc(-c3noc(C(F)(F)F)n3)cc2)c1 [compound 21]
Test C disease control rating ([1]; 10 ppm test suspension): 100% | Test A disease control rating (Phakopsora pachyrhizi; 10 ppm test suspension): 100% | Test B disease control rating (Zymoseptoria tritici; [2]): 97** %

N#CCOC(=O)c1cnn(Cc2ccc(-c3noc(C(F)(F)F)n3)cc2)c1 [compound 57]
Test C disease control rating ([1]; 10 ppm test suspension): 100% | Test A disease control rating (Phakopsora pachyrhizi; 10 ppm test suspension): 100% | Test B disease control rating (Zymoseptoria tritici; [2]): 99** %

CCCOC(=O)c1cnn(Cc2ccc(-c3noc(C(F)(F)F)n3)s2)c1 [compound 198]
Test C disease control rating ([1]; 10 ppm test suspension): 99% | Test A disease control rating (Phakopsora pachyrhizi; 10 ppm test suspension): 100% | Test B disease control rating (Zymoseptoria tritici; [2]): 94** %

O=C(NCC(F)F)c1coc(Cc2ccc(-c3noc(C(F)(F)F)n3)cc2)n1 [compound 225]
Test C disease control rating ([1]; 10 ppm test suspension): 100% | Test A disease control rating (Phakopsora pachyrhizi; 10 ppm test suspension): 100% | Test B disease control rating (Zymoseptoria tritici; 250 ppm test suspension): 99* %

N#CCCNC(=O)c1coc(Cc2ccc(-c3noc(C(F)(F)F)n3)cc2)n1 [compound 229]
Test C disease control rating ([1]; 10 ppm test suspension): 100% | Test A disease control rating (Phakopsora pachyrhizi; 10 ppm test suspension): 100% | Test B disease control rating (Zymoseptoria tritici; 250 ppm test suspension): 94* %

COCCNC(=O)c1coc(Cc2ccc(-c3noc(C(F)(F)F)n3)cc2)n1 [compound 257]
Test C disease control rating ([1]; 10 ppm test suspension): 100% | Test A disease control rating (Phakopsora pachyrhizi; 10 ppm test suspension): 100% | Test B disease control rating (Zymoseptoria tritici; 250 ppm test suspension): 99* %

O=C(NCCn1cccn1)c1coc(Cc2ccc(-c3noc(C(F)(F)F)n3)cc2)n1 [compound 264]
Test C disease control rating ([1]; 10 ppm test suspension): 99% | Test A disease control rating (Phakopsora pachyrhizi; 10 ppm test suspension): 100% | Test B disease control rating (Zymoseptoria tritici; 250 ppm test suspension): 99* %

CCOC(=O)c1cnn(Cc2ccc(-c3noc(C(F)(F)F)n3)cc2)c1 [compound 276]
Test C disease control rating ([1]; 50 ppm test suspension): 80% | Test A disease control rating (Phakopsora pachyrhizi; 50 ppm test suspension): 100% | Test B disease control rating (Zymoseptoria tritici; 250 ppm test suspension): 35* %

O=C(NCC(F)(F)F)c1coc(Cc2ccc(-c3noc(C(F)(F)F)n3)cc2)n1 [compound 316]
Test C disease control rating ([1]; 10 ppm test suspension): 100% | Test A disease control rating (Phakopsora pachyrhizi; 10 ppm test suspension): 100% | Test B disease control rating (Zymoseptoria tritici; 250 ppm test suspension): 5* %

O=C(NCCC(F)(F)F)c1coc(Cc2ccc(-c3noc(C(F)(F)F)n3)cc2)n1 [compound 330]
Test C disease control rating ([1]; 10 ppm test suspension): 100% | Test A disease control rating (Phakopsora pachyrhizi; 10 ppm test suspension): 100% | Test B disease control rating (Zymoseptoria tritici; 250 ppm test suspension): 96* %

CCOC(=O)c1cnn(COc2ccc(-c3noc(C(F)(F)F)n3)cc2)c1 [compound 376]
Test C disease control rating ([1]; 10 ppm test suspension): 68% | Test A disease control rating (Phakopsora pachyrhizi; 10 ppm test suspension): 100% | Test B disease control rating (Zymoseptoria tritici; 250 ppm test suspension): 49* %

N#CCNC(=O)c1csc(Cc2ccc(-c3noc(C(F)(F)F)n3)cc2)n1 [compound 393]
Test C rating (% disease control) ([1]; Rate 10 ppm test suspension): 100% | Test A rating (% disease control) (Phakopsora pachyrhizi; Rate 10 ppm test suspension): 100% | Test B rating (% disease control) (Zymoseptoria tritici; 250 ppm test suspension): 94* %

COCCNC(=O)c1csc(Cc2ccc(-c3noc(C(F)(F)F)n3)cc2)n1 [compound 394]
Test C rating (% disease control) ([1]; Rate 10 ppm test suspension): 100% | Test A rating (% disease control) (Phakopsora pachyrhizi; Rate 10 ppm test suspension): 100% | Test B rating (% disease control) (Zymoseptoria tritici; 250 ppm test suspension): 99* %

O=C(NC1CCC(F)(F)CC1)c1coc(Cc2ccc(-c3noc(C(F)(F)F)n3)cc2)n1 [compound 395]
Test C rating (% disease control) ([1]; Rate 10 ppm test suspension): 97% | Test A rating (% disease control) (Phakopsora pachyrhizi; Rate 10 ppm test suspension): 95% | Test B rating (% disease control) (Zymoseptoria tritici; 250 ppm test suspension): 0* %

O=C(NCCn1cccn1)c1csc(Cc2ccc(-c3noc(C(F)(F)F)n3)cc2)n1 [compound 396]
Test C rating (% disease control) ([1]; Rate 10 ppm test suspension): 100% | Test A rating (% disease control) (Phakopsora pachyrhizi; Rate 10 ppm test suspension): 100% | Test B rating (% disease control) (Zymoseptoria tritici; 250 ppm test suspension): 28* %

O=C(NCCC(F)(F)F)c1csc(Cc2ccc(-c3noc(C(F)(F)F)n3)cc2)n1 [compound 397]
Test C rating (% disease control) ([1]; Rate 10 ppm test suspension): 98% | Test A rating (% disease control) (Phakopsora pachyrhizi; Rate 10 ppm test suspension): 100% | Test B rating (% disease control) (Zymoseptoria tritici; 250 ppm test suspension): 82* %

O=C(NCCCC(F)(F)F)c1coc(Cc2ccc(-c3noc(C(F)(F)F)n3)cc2)n1 [compound 398]
Test C rating (% disease control) ([1]; Rate 10 ppm test suspension): 97% | Test A rating (% disease control) (Phakopsora pachyrhizi; Rate 10 ppm test suspension): 100% | Test B rating (% disease control) (Zymoseptoria tritici; 250 ppm test suspension): 80* %

O=C(NCC=C(Cl)Cl)c1coc(Cc2ccc(-c3noc(C(F)(F)F)n3)cc2)n1 [compound 399]
Test C rating (% disease control) ([1]; Rate 10 ppm test suspension): 99% | Test A rating (% disease control) (Phakopsora pachyrhizi; Rate 10 ppm test suspension): 100% | Test B rating (% disease control) (Zymoseptoria tritici; 250 ppm test suspension): 10* %

O=C(NCCF)c1coc(Cc2ccc(-c3noc(C(F)(F)F)n3)cc2)n1 [compound 400]
Test C rating (% disease control) ([1]; Rate 10 ppm test suspension): 100% | Test A rating (% disease control) (Phakopsora pachyrhizi; Rate 10 ppm test suspension): 100% | Test B rating (% disease control) (Zymoseptoria tritici; 250 ppm test suspension): 99* %

O=C(NCCOC(F)(F)F)c1coc(Cc2ccc(-c3noc(C(F)(F)F)n3)cc2)n1 [compound 401]
Test C rating (% disease control) ([1]; Rate 10 ppm test suspension): 99% | Test A rating (% disease control) (Phakopsora pachyrhizi; Rate 10 ppm test suspension): 100% | Test B rating (% disease control) (Zymoseptoria tritici; 250 ppm test suspension): 77* %

O=C(c1coc(Cc2ccc(-c3noc(C(F)(F)F)n3)cc2)n1)N1CCC(F)(F)C1 [compound 402]
Test C rating (% disease control) ([1]; Rate 10 ppm test suspension): 90% | Test A rating (% disease control) (Phakopsora pachyrhizi; Rate 10 ppm test suspension): 100% | Test B rating (% disease control) (Zymoseptoria tritici; 250 ppm test suspension): 96* %

CCOC(=O)c1csc(COc2ccc(-c3noc(C(F)(F)F)n3)cc2)n1 [compound 404]
Test C rating (% disease control) ([1]; Rate 10 ppm test suspension): 68% | Test A rating (% disease control) (Phakopsora pachyrhizi; Rate 10 ppm test suspension): 0% | Test B rating (% disease control) (Zymoseptoria tritici; 250 ppm test suspension): 0* %
